The test system of data set [1] is CCRF-CEM. In words: Compound was tested for its antitumor activity against human lymphoblastic leukemic cells(CCRF-CEM) in vitro. It counts as functional, cell-based.
Data set [2] has as its target T1, Folylpolyglutamate synthase, mitochondrial (Mus musculus) (UniProt P48760).
T1 sequence (whole entry): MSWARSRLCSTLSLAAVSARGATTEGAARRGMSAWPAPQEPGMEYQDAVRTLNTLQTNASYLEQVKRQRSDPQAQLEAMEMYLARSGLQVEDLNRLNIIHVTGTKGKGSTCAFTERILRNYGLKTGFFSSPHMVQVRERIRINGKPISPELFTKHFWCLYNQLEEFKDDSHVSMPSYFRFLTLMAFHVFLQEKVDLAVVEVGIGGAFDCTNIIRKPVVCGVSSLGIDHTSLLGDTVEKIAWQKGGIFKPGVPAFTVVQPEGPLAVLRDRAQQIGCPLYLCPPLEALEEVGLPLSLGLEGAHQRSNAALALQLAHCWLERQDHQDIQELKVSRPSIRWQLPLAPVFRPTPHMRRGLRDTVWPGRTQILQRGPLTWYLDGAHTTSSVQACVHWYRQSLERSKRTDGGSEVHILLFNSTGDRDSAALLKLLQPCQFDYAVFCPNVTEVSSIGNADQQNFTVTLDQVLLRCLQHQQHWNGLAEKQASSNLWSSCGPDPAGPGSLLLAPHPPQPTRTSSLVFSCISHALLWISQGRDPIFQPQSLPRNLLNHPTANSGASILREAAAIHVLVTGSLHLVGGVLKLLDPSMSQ
In words: Apparent catalytic rate constants (Km) owas determined from mouse liver Folyl-polyglutamate synthase.

Data set [3] addresses T1, Folylpolyglutamate synthase, mitochondrial (Mus musculus). In words: First order catalytic rate constants (k) was determined from mouse liver Folyl-polyglutamate synthase.
Data set [4] shares this target. The data set can be described thus: Apparent catalytic rate folyl-poly-glutamate synthetase.
The target is the same in data set [5]. The data set can be described thus: First order catalytic rate folyl-poly-glutamate synthetase.
Data set [6] has the same target. In words: Apparent catalytic rate constants (Km) was determined from mouse liver Folyl-polyglutamate synthase.
Substrate in data set [7]: Nc1nc(N)c2nc(CNc3ccc(C(=O)N[C@@H](CCC(=O)O)C(=O)O)cc3)cnc2n1
In words: (§1) Catalytic rate constants (Vmax) was determined from mouse liver Folyl-polyglutamate synthase.

Substrate in data set [8]: Nc1nc(O)c2c(n1)NCC(CNc1ccc(C(=O)N[C@@H](CCC(=O)O)C(=O)O)cc1)C2
The data set is described as §1.

Substrate in data set [9]: Nc1nc2c(c(=O)[nH]1)C[C@@H](CCc1ccc(C(=O)N[C@@H](CCC(=O)O)C(=O)O)cc1)CN2
The description is as §1.

Substrate in data set [10]: Nc1nc(=O)c2nc(CNc3ccc(C(=O)N[C@@H](CCC(=O)O)C(=O)O)cc3)cnc2[nH]1
In words: Catalytic rate folyl-poly-glutamate synthetase.

Data on eleven molecules can be found in ChEMBL document CHEMBL1124522, “Synthesis and antitumor activity of 5-deaza-5,6,7,8-tetrahydrofolic acid and its N10-substituted analogues” (J Med Chem, 1989).

For orientation: IC50 means the midpoint of a concentration-inhibition curve. Low values mean greater potency in that assay, high ones weaker potency in that assay. In [1] (Homo sapiens, CCRF-CEM), `CN(CC1CNc2nc(N)nc(O)c2C1)c1ccc(C(=O)N[C@@H](CCC(=O)O)C(=O)O)cc1` (stereo partly drawn) registered an IC50 of 40 nM. Take `Nc1nc2c(c(=O)[nH]1)C[C@@H](CCc1ccc(C(=O)N[C@@H](CCC(=O)O)C(=O)O)cc1)CN2` (stereo in doubt; form 2) [LOMETREXOL]: half-maximal inhibition in data set [1] (ccrf-cem) (IC50) required 5 nM.

On to `CC(=O)N(CC1CNc2nc(N)nc(O)c2C1)c1ccc(C(=O)N[C@@H](CCC(=O)O)C(=O)O)cc1` (stereo partly drawn), for which half-maximal inhibition in data set [1] (Homo sapiens, CCRF-CEM) (IC50) required 600 nM. For `Nc1nc(N)c2nc(CNc3ccc(C(=O)N[C@@H](CCC(=O)O)C(=O)O)cc3)cnc2n1`, in data set [2], the Km app stood at 21 µM. In [3], this molecule gave a k of 10.1. For `Nc1nc2c(c(=O)[nH]1)C[C@@H](CCc1ccc(C(=O)N[C@@H](CCC(=O)O)C(=O)O)cc1)CN2` (stereo in doubt; form 3) the same measures were 7.3 µM and 32. Regarding `Nc1nc(=O)c2nc(CNc3ccc(C(=O)N[C@@H](CCC(=O)O)C(=O)O)cc3)cnc2[nH]1`, the Km app in data set [4] came to 140 µM. The same molecule gave a k in [5] of 1. Take `Nc1nc(O)c2c(n1)NCC(CNc1ccc(C(=O)N[C@@H](CCC(=O)O)C(=O)O)cc1)C2` (stereo in doubt; 7a-A): the IC50 in data set [1] (ccrf-cem) was determined as 6 nM. On to `Nc1nc2c(c(=O)[nH]1)C[C@@H](CCc1ccc(C(=O)N[C@@H](CCC(=O)O)C(=O)O)cc1)CN2` (stereo in doubt; form 1) [LOMETREXOL], for which, in data set [1] (ccrf-cem), the IC50 came to 8 nM. On to `Nc1nc(O)c2c(n1)NCC(CNc1ccc(C(=O)N[C@@H](CCC(=O)O)C(=O)O)cc1)C2` (stereo in doubt; 7a), for which the Km app in data set [6] was determined as 1.06 µM. For the same molecule, in data set [3], the k is 170. `Nc1nc2c(c(=O)[nH]1)C[C@@H](CCc1ccc(C(=O)N[C@@H](CCC(=O)O)C(=O)O)cc1)CN2` (stereo in doubt; form 3) [LOMETREXOL] came in with an IC50 in data set [1] (ccrf-cem) of 20 nM.

B1: Folylpolyglutamate synthase, mitochondrial (Mus musculus), P48760 (protein)
chain: T1 sequence (whole entry)
Turning to B1, the Vmax in data set [7] amounted to 1.59; in [8], 1.3; in data set [9] it was 1.26; in data set [10], 1.
